Assay results taken from patent publication US10822318B2, “Lactone-based probes and methods of use thereof” (REGENTS OF THE UNIVERSITY OF MINNESOTA, priority 2017, dated 2020).

Assays:
S. pneumoniae cells = assay: 3D-SIM imaging of lactone probe labeled cells; format: cell-based; details: for late divisional cells showing central septal labeling: untreated, ≈41 cells examined
Experimental: Cells from an overnight culture were diluted to OD620 0.02 in 2 ml of fresh BHI prewarmed to 37° C. and incubated at 37° C. in an atmosphere of 5% CO2. At OD620 0.2, 1.5 ml of culture was added to a microfuge tube and centrifuged at room temperature for 5 min at 16000×g. The supernatant was discarded, the pellet was resuspended in 1 ml room temperature PBS, and the culture was centrifuged a second time. The supernatant was discarded and the pellet was resuspended in either 50 μl of PBS with 5 μg mL^−1 7FL or 100 μl PBS with 5 μg mL^−1 8T. The cells were incubated for 20 min at room temperature in the dark. After incubation the cells were spun and washed with 1 ml of PBS (7FL) or 1 ml of PBS containing 50 mM glucose (8T). The cells were spun a second time and washed with 200 μl of PBS (7FL) or 200 μl of PBS with 50 mM glucose (8T), and finally spun a third time and resuspended in 100 μl of cold (4° C.) GTE buffer (50 mM glucose, 20 mM Tris pH 7.5, 1 mM EDTA). The cells were spun down at 4° C., the supernatant was discarded, and the pellet was resuspended in 15 μl of Vectashield Hardest Antifade (Vector Labs) and kept on ice. 1.2 μl of cells in antifade was pipetted onto a clean coverslip, applied to a slide, and imaged via 3D-SIM. 3D-SIM was performed using the OMX 3D-SIM super-resolution system located in the Indiana University Bloomington Light Microscopy Imaging Center (www.indiana.edu/˜lmic/microscopes/index.html#OMX). The system used is equipped with four Photometrics Cascade II EMCCD cameras that allow simultaneous imaging of up to four colors, and is controlled by DV-OMX software, with image processing by Applied Precision softWoRx 6.0.0 software. Exposure times and % T settings for DAPI, Alexa 488, and Alexa 568 images were 5 ms and 100% for all three channels.
For pre-treatment with methicillin followed by lactone probe labeling, duplicate 2 ml cultures of each strain were created and incubated as described above. At OD620 0.12, methicillin was added to a final concentration of 0.1 μg mL^−1 to one culture for each strain, and the strains were placed back in the incubator. After 20 min, all cultures were harvested, labeled, and imaged as described above.
For labeling of cells with both lactone probes, the following changes were made: After a 20 min incubation with 7FL, the cells were spun down and washed once in 1 ml of PBS. The cells were spun again and resuspended in 100 μl of 8T in PBS at 5 μg mL^−1. The cells were incubated for 20 min at room temperature in the dark, and then washed and imaged as described above for 8T labeling.

PBPs = assay: Gel-based analysis of β-lactone probes applied to Bacillus subtilis PY79 cells; format: cell-based; details: B. subtilis PY79 cells, probe 5 μg/ml
Experimental: Bacillus subtilis strain PY79, was grown in Luria Bertani (LB) medium in 100×17 mm tubes by incubation at 37° C., shaking at 200 rpm. For labeling experiments, overnight cultures were diluted to OD600=0.01-0.05 and grown as above. Samples with OD600=0.35-0.40 were utilized in labeling experiments conducted as previously described (Kocaoglu, O, et al. (2013) Curr Protoc Chem Biol 5, 239), and summarized as follows: Cell pellets from 1.0 ml of B. subtilis cultures were harvested by centrifugation (8,000×g for 2 min at RT) and washed with phosphate buffered saline (PBS; pH 7.4). […] The protein concentration was measured by NanoDrop 1000 Spectrophotometer (Thermo Scientific) or NanoPhotometer P330 (IMPLEN). […] The protein bands were separated by gel electrophoresis for 1.5 h at 180 V, 400 mA, 60 W. The gel was rinsed with distilled water three times before fluorescence scanning (method description for FIGS. 10a and 10b). […]
After SDS-PAGE, labeled proteins were visualized at 50-μm resolution in gels using a Typhoon 9210 gel scanner (Amersham Biosciences) with 580-nm bandpass filter for TAMRA, 526-nm short-pass filter for fluorescein and BODIPY FL, and 670-nm bandpass filter for BODIPY 650/665. All gel images were analyzed using ImageJ software (National Institutes of Health). […]

| Substance | late divisional cells showing central septal labeling (S. pneumoniae cells; wild-type) [%] | late divisional cells showing central septal labeling (S. pneumoniae cells; Δpbp1b) [%] | PBPs labeled (gel-based labeling profile) (PBPs) | cells with labeling excluded from the center of the division site (S. pneumoniae cells; after pre-treatment with 7FL, wild-type and Δpbp1b cells) [%] |
| --- | --- | --- | --- | --- |
| (2S,3R)-β-lactone-L-Phe-fluorescein [Probe 7FL] | 85 | 73 | comparable to the TAMRA probes | – |
| (2S, 3R)-β-lactone-D-Phe-TAMRA [Probe 8T] | 80.5 | 75.6 | PBP1, PBP2b and PBP5 | > 83 |
